Experimental findings from patent publication US10538517B2, “Quinolone derivatives as FGFR inhibitors” (Principia Biopharma, Inc., priority 2015, dated 2020) are described below.

The structures appear in SMILES notation.

The subject of the first assay is SNU-16 cells. In words: Inhibition of FGFR2-dependent cell growth (Cell-titer Glo). Format: cell-based. Conditions: Homo sapiens, 72 hrs incubation, cell viability, read-out: SNU16 IC50 values. As to the method: The cell-based effects of FGFR inhibitors were determined by measuring inhibition of FGFR-dependent cell line growth. The cell lines SNU-16 was used for these assays. […] Percent inhibition of cell growth was calculated as a percentage of untreated cell viability. The percent inhibition was plotted as a function of log compound concentration. The IC50 was then calculated for each compound using Prism software from GraphPad.
`CNc1ncc2cc(-c3cc(OC)cc(OC)c3)c(=O)n(CCc3ccc(NC(=O)C(C#N)=CC(C)(C)N)cc3)c2n1` [Cpd 9 (table 2), 4-amino-2-cyano-N-(4-(2-(6-(3,5-dimethoxyphenyl)-2-(methylamino)-7-oxopyrido[2,3-d]pyrimidin-8(7H)-yl)ethyl)phenyl)-4-methylpent-2-enamide]: the half-inhibitory concentration (IC50) amounted to 29.7 nM.

As for `CNc1ncc2cc(-c3cc(OC)cc(OC)c3)c(=O)n(CCc3ccc(NC(=O)C(C#N)=CC(C)(C)C)cc3)c2n1` [Cpd 8 (table 2), 2-cyano-N-(4-(2-(6-(3,5-dimethoxyphenyl)-2-(methylamino)-7-oxopyrido[2,3-d]pyrimidin-8(7H)-yl)ethyl)phenyl)-4,4-dimethylpent-2-enamide], the concentration for half-maximal inhibition (IC50) was 18.6 nM.

The assay is the same for the next values; noted with them: Homo sapiens, SNU-16, 72 h, 72 hrs incubation, cell viability, read-out: SNU16 IC50 values.
With `COc1cc(OC)c(Cl)c(-c2cc3cnc(NCC(C)(C)O)nc3n(CCc3cccc(NC(=O)C(C#N)=CC(C)(C)C)c3)c2=O)c1` [Cpd 52 (table 2), N-(3-(2-(6-(2-chloro-3,5-dimethoxyphenyl)-2-((2-hydroxy-2-methylpropyl)amino)-7-oxopyrido[2,3-d]pyrimidin-8(7H)-yl)ethyl)phenyl)-2-cyano-4,4-dimethylpent-2-enamide], the half-inhibitory concentration (IC50) was 15.7 nM.

On to `CNc1ncc2cc(-c3cc(OC)cc(OC)c3Cl)c(=O)n(CCc3cccc(N(C)C(=O)C(C#N)=CC(C)(C)N)c3)c2n1` [Cpd 26 (table 2), 4-amino-N-(3-(2-(6-(2-chloro-3,5-dimethoxyphenyl)-2-(methylamino)-7-oxopyrido[2,3-d]pyrimidin-8(7H)-yl)ethyl)phenyl)-2-cyano-N,4-dimethylpent-2-enamide], for which the IC50 turned out to be 56 nM.

In the case of `CNc1ncc2cc(-c3cc(OC)cc(OC)c3Cl)c(=O)n(CCc3cccc(N(C)C(=O)C(C#N)=CC(C)(C)N(C)C)c3)c2n1` [Cpd 39 (table 2), N-(3-(2-(6-(2-chloro-3,5-dimethoxyphenyl)-2-(methylamino)-7-oxopyrido[2,3-d]pyrimidin-8(7H)-yl)ethyl)phenyl)-2-cyano-4-(dimethylamino)-N,4-dimethylpent-2-enamide], the half-maximal inhibitory concentration (IC50) came to 40.2 nM.

Take `CNc1ncc2cc(-c3cc(OC)cc(OC)c3Cl)c(=O)n(CCc3ccc(NC(=O)C(C#N)=CC(C)(C)N)nc3)c2n1` [Cpd 21 (table 2), 4-amino-N-(5-(2-(6-(2-chloro-3,5-dimethoxyphenyl)-2-(methylamino)-7-oxopyrido[2,3-d]pyrimidin-8(7H)-yl)ethyl)pyridin-2-yl)-2-cyano-4-methylpent-2-enamide]: the IC50 was determined as 33.1 nM.

For the compound `CNc1ncc2cc(-c3cc(OC)cc(OC)c3Cl)c(=O)n(CCCc3ccc(C=C(C#N)C(=O)NC(C)(C)C)cc3)c2n1` [Cpd 75 (table 2), N-(tert-butyl)-3-(4-(3-(6-(2-chloro-3,5-dimethoxyphenyl)-2-(methylamino)-7-oxopyrido[2,3-d]pyrimidin-8(7H)-yl)propyl)phenyl)-2-cyanoacrylamide], the IC50 amounted to 87.2 nM.

As to `CNc1ncc2cc(-c3c(Cl)c(OC)cc(OC)c3Cl)c(=O)n(CCN3CCN(C(=O)C(C#N)=CC(C)(C)C)CC3)c2n1` [Cpd 3 (table 1), 2-(4-(2-(6-(2,6-dichloro-3,5-dimethoxyphenyl)-2-(methylamino)-7-oxopyrido[2,3-d]pyrimidin-8(7H)-yl)ethyl)piperazine-1-carbonyl)-4,4-dimethylpent-2-enenitrile], the concentration for half-maximal inhibition (IC50) amounted to 34 nM.

Consider `CCOC(C)(C)C=C(C#N)C(=O)Nc1ccc(CCn2c(=O)c(-c3cc(OC)cc(OC)c3Cl)cc3cnc(NC)nc32)cc1` [Cpd 27 (table 2), N-(4-(2-(6-(2-chloro-3,5-dimethoxyphenyl)-2-(methylamino)-7-oxopyrido[2,3-d]pyrimidin-8(7H)-yl)ethyl)phenyl)-2-cyano-4-ethoxy-4-methylpent-2-enamide], for which the concentration for half-maximal inhibition (IC50) was 4.2 nM.

Regarding `CNc1ncc2cc(-c3cc(OC)cc(OC)c3Cl)c(=O)n(CCN3CCN(C(=O)C(C#N)=CC(C)(C)C)CC3)c2n1` [Cpd 2 (table 1), 2-(4-(2-(6-(2-chloro-3,5-dimethoxyphenyl)-2-(methylamino)-7-oxopyrido[2,3-d]pyrimidin-8(7H)-yl)ethyl)piperazine-1-carbonyl)-4,4-dimethylpent-2-enenitrile], the concentration for half-maximal inhibition (IC50) turned out to be 50.8 nM.

Regarding `CNc1ncc2cc(-c3cc(OC)cc(OC)c3Cl)c(=O)n(CCCN3CCN(C(=O)C(C#N)=CC(C)(C)C)CC3)c2n1` [Cpd 5 (table 1), 2-(4-(3-(6-(2-chloro-3,5-dimethoxyphenyl)-2-(methylamino)-7-oxopyrido[2,3-d]pyrimidin-8(7H)-yl)propyl)piperazine-1-carbonyl)-4,4-dimethylpent-2-enenitrile], the half-maximal inhibitory concentration (IC50) is 27.2 nM.

As to `CCN(CC)CCCCNc1ncc2cc(-c3c(Cl)c(OC)cc(OC)c3Cl)c(=O)n(CCc3ccc(NC(=O)C(C#N)=CC(C)C)cc3)c2n1` [Cpd 4 (table 2), 2-cyano-N-(4-(2-(6-(2,6-dichloro-3,5-dimethoxyphenyl)-2-((4-(diethylamino)butyl)amino)-7-oxopyrido[2,3-d]pyrimidin-8(7H)-yl)ethyl)phenyl)-4-methylpent-2-enamide], the IC50 is 5.3 nM.

On to `CNc1ncc2cc(-c3cc(OC)cc(OC)c3Cl)c(=O)n(CCc3cccc(NC(=O)C(C#N)=CC(C)(C)N4CCC(O)CC4)c3)c2n1` [Cpd 53 (table 2), N-(3-(2-(6-(2-chloro-3,5-dimethoxyphenyl)-2-(methylamino)-7-oxopyrido[2,3-d]pyrimidin-8(7H)-yl)ethyl)phenyl)-2-cyano-4-(4-hydroxypiperidin-1-yl)-4-methylpent-2-enamide], for which the IC50 stood at 5.1 nM.

Turning to `CNc1ncc2cc(-c3cc(OC)cc(OC)c3Cl)c(=O)n(CCc3ccc(NC(=O)C(C#N)=CC(C)(C)N(C)C4COC4)cc3)c2n1` [Cpd 29 (table 2), N-(4-(2-(6-(2-chloro-3,5-dimethoxyphenyl)-2-(methylamino)-7-oxopyrido[2,3-d]pyrimidin-8(7H)-yl)ethyl)phenyl)-2-cyano-4-methyl-4-(methyl(oxetan-3-yl)amino)pent-2-enamide], the half-maximal inhibitory concentration (IC50) came out at 1.4 nM.

Regarding `CNc1ncc2cc(-c3cc(OC)cc(OC)c3Cl)c(=O)n(CCc3ccc(NC(=O)C(C#N)=CC(C)(C)N4CCN(C5COC5)CC4)cc3)c2n1` [Cpd 61 (table 2), N-(4-(2-(6-(2-chloro-3,5-dimethoxyphenyl)-2-(methylamino)-7-oxopyrido[2,3-d]pyrimidin-8(7H)-yl)ethyl)phenyl)-2-cyano-4-methyl-4-(4-(oxetan-3-yl)piperazin-1-yl)pent-2-enamide], the concentration for half-maximal inhibition (IC50) was found to be 4.3 nM.

Regarding `COc1cc(OC)c(Cl)c(-c2cc3cnc(NCCN4CCOCC4)nc3n(CCc3ccc(NC(=O)C(C#N)=CC(C)(C)C)cc3)c2=O)c1` [Cpd 68 (table 2), N-(4-(2-(6-(2-chloro-3,5-dimethoxyphenyl)-2-((2-morpholinoethyl)amino)-7-oxopyrido[2,3-d]pyrimidin-8(7H)-yl)ethyl)phenyl)-2-cyano-4,4-dimethylpent-2-enamide], the concentration for half-maximal inhibition (IC50) turned out to be 35.5 nM.

Take `CNc1ncc2cc(-c3cc(OC)cc(OC)c3Cl)c(=O)n(CCc3cccc(NC(=O)C(C#N)=CC(C)(C)C)n3)c2n1` [Cpd 16 (table 2), N-(6-(2-(6-(2-chloro-3,5-dimethoxyphenyl)-2-(methylamino)-7-oxopyrido[2,3-d]pyrimidin-8(7H)-yl)ethyl)pyridin-2-yl)-2-cyano-4,4-dimethylpent-2-enamide]: the half-inhibitory concentration (IC50) was 43.9 nM.

With `CNc1ncc2cc(-c3cc(OC)cc(OC)c3Cl)c(=O)n(CCc3cccc(NC(=O)C(C#N)=CC(C)(C)N(C)C4COC4)c3)c2n1` [Cpd 43 (table 2), N-(3-(2-(6-(2-chloro-3,5-dimethoxyphenyl)-2-(methylamino)-7-oxopyrido[2,3-d]pyrimidin-8(7H)-yl)ethyl)phenyl)-2-cyano-4-methyl-4-(methyl(oxetan-3-yl)amino)pent-2-enamide], the IC50 turned out to be 2.4 nM.

Turning to `CNc1ncc2cc(-c3cc(OC)cc(OC)c3Cl)c(=O)n(CCc3cnc(NC(=O)C(C#N)=CC(C)(C)C)cn3)c2n1` [Cpd 71 (table 2), N-(5-(2-(6-(2-chloro-3,5-dimethoxyphenyl)-2-(methylamino)-7-oxopyrido[2,3-d]pyrimidin-8(7H)-yl)ethyl)pyrazin-2-yl)-2-cyano-4,4-dimethylpent-2-enamide], the half-inhibitory concentration (IC50) stood at 79.6 nM.

In the case of `CNc1ncc2cc(-c3cc(OC)cc(OC)c3Cl)c(=O)n(CCc3csc(NC(=O)C(C#N)=CC(C)(C)C)n3)c2n1` [Cpd 67 (table 2), N-(4-(2-(6-(2-chloro-3,5-dimethoxyphenyl)-2-(methylamino)-7-oxopyrido[2,3-d]pyrimidin-8(7H)-yl)ethyl)thiazol-2-yl)-2-cyano-4,4-dimethylpent-2-enamide], the IC50 came to 936 nM.

For `CNc1ncc2cc(-c3cc(OC)cc(OC)c3Cl)c(=O)n(CCc3ccnc(NC(=O)C(C#N)=CC(C)(C)N)c3)c2n1` [Cpd 20 (table 2), 4-amino-N-(4-(2-(6-(2-chloro-3,5-dimethoxyphenyl)-2-(methylamino)-7-oxopyrido[2,3-d]pyrimidin-8(7H)-yl)ethyl)pyridin-2-yl)-2-cyano-4-methylpent-2-enamide], the IC50 was 91.4 nM.

Regarding `CNc1ncc2cc(-c3cc(OC)cc(OC)c3Cl)c(=O)n(CCN3C[C@@H]4CN(C(=O)C(C#N)=CC(C)(C)C)C[C@@H]4C3)c2n1` [Cpd 6 (table 1), 2-((3aR,6aS)-5-(2-(6-(2-chloro-3,5-dimethoxyphenyl)-2-(methylamino)-7-oxopyrido[2,3-d]pyrimidin-8(7H)-yl)ethyl)octahydropyrrolo[3,4-c]pyrrole-2-carbonyl)-4,4-dimethylpent-2-enenitrile], the IC50 was 649 nM.

For the compound `COc1cc(OC)c(Cl)c(-c2cc3cnc(N)nc3n(CCc3cccc(NC(=O)C(C#N)=CC(C)(C)C)c3)c2=O)c1` [Cpd 50 (table 2), N-(3-(2-(2-amino-6-(2-chloro-3,5-dimethoxyphenyl)-7-oxopyrido[2,3-d]pyrimidin-8(7H)-yl)ethyl)phenyl)-2-cyano-4,4-dimethylpent-2-enamide], the 50% inhibitory concentration (IC50) stood at 4.6 nM.
